Experiment [1] concerns AMPA induced [3H]GABA release from cultured cortical neurons. Description: Potentiation of AMPA induced [3H]GABA release from cultured cortical neurons. The experiment is classed as cell-based, mouse. Particulars: 5 μM AMPA; expressed relative to potentiation induced by 30 μM cyclothiazide; FIGS. 1 and 2. The protocol:
Neurons which express receptors for excitatory amino acids can be depolarized by such compounds and this depolariztion will ultimately lead to a release of transmitter substance from the neurons. Cultured neurons obtained from 16-day-old mouse embryo cortex are mainly GABAergic and express all types of excitatory amino acid receptors. This means that they can be stimulated by high potassium (55 mM) or by the excitatory amino acids NMDA (20 μM), AMPA (5 μM) and kainate (5 μM) to release their neurotransmitter GABA.
^3H-GABA may be used to label the GABA transmitter pool in the neurons and the release of ^3H-GABA from the neurons may be used as a simple functional model for studies of the effects of excitatory amino acid receptor agonists, antagonists, and modulators.
Cerebral cortices of 15–16 day-old NMRI mouse embryos are chopped in 0.4×0.4 mm cubes and the tissue is dissociated by mild trypsinization (0.1% (wt/vol) trypsin, 37° C., 10 min). Subsequently the cell suspension (3 mill/ml) is inoculated into poly-L-lysine-coated 30 mm Petri dishes (3 ml/dish) containing a slightly modified DMEM (24.5 mM KCl) supplemented with p-aminobenzoate (7 μM), insulin (100 mU/L) and 10% (vol/vol) horse serum. Cells are maintained in culture for 5–7 days with the addition of the antimitotic agent cytosine arbinoside (5 μM) from day 2 in vitro to prevent glial proliferation. […]

Experiment [2] concerns the target ionotropic quisqualate (AMPA) receptors. Kind of experiment: In vitro inhibition of 3H-AMPA binding. The following applies: 5 nM 3H-AMPA, rat cerebral cortex membranes, 30 min at 2° C.; read-out: IC50 (concentration of the test substance which inhibits the specific binding of 3H-AMPA by 50%). The text has this:
L-glutamate (GLU) is the major excitatory neurotransmitter in the mammalian central nervous system. From electrophysiological- and binding studies, there appear to be at least three subtypes of GLU receptors, tentatively named N-methyl-D-aspartate (NMDA)-, quisqualate- and kainate receptors. GLU receptor subtypes sensitive to quisqualate and kainate as a group are often referred to as non-NMDA receptors. Receptor binding studies using the labelled agonists ^3H-AMPA (α-amino-3-hydroxy-5-methyl-4-isoxazolepropionic acid) (for quisqualate receptors) and ^3H-kainate (for kainate receptors) have shown different antagonist selectivities and regional distribution. AMPA has been known for several years to be a potent and selective agonist at the traditionally named quisqualate receptors. Activation of quisqualate receptors by AMPA is associated with Na^+ influx and K^+ efflux leading to depolarization.
The non-NMDA receptors have recently been reclassified to include the quisqualate activated metabotropic receptor type, linked to the inositol triphosphate and diacylglycerate metabolism. […] Selective activation of the metabotropic type has been claimed for trans-ACPD. Recently, the potent and competitive non-NMDA receptor antagonists CNQX and NBQX have been described, and CNQX have been reported not to block the effect of quisqualate at the metabotropic receptor subtype. ^3H-AMPA is a selective radioligand for labelling the ionotropic quisqualate (AMPA) receptors.
Preparations are performed at 0–4° C. unless otherwise indicated. Cerebral cortex from male Wistar rats (150–200 g) is homogenized for 5–10 sec in 20 ml Tris-HCl (30 mM, pH 7.4) using an Ultra-Turrax homogenizer. The suspension is centrifuged at 27,000×g for 15 min and the pellet is washed three times with buffer (centrifuged at 27,000×g for 10 min). The washed pellet is homogenized in 20 ml of buffer and incubated on a water bath (37° C.) for 30 min to remove endogenous glutamate and then centrifuged for 10 min at 27,000×g. The pellet is then homogenized in buffer and centrifuged at for 10 min at 27,000×g. The final pellet is resuspended in 30 ml buffer and the preparation is frozen and stored at −20° C.
The membrane preparation is thawed and centrifuged at 2° C. for 10 min at 27,000×g for 10 min. The pellet is washed twice with 20 ml 30 mM Tris-HCl containing 2.5 mM CaCl2, pH 7.4 using an Ultra-Turrax homogenizer and centrifuged for 10 min at 27,000×g. The final pellet is resuspended in 30 mM Tris-HCl containing 2.5 mM CaCl2 and 100 mM KSCN, pH 7.4 (100 ml per g of original tissue) and used for binding assays. Aliquots of 0.5 (0.2) ml are added to 25 (20) μl of test solution and 25(20) μl of ^3H-AMPA (5 nM, final concentration), mixed and incubated for 30 min at 2° C. Non-specific binding is determined using L-glutamate (0.6 mM, final concentration). After incubation the 550 μl samples are added 5 ml of ice-cold buffer and poured directly onto Whatman GF/C glass fibre filters under suction and immediately washed with 5 ml of ice-cold buffer. The 240 μl samples are filtered over glass fibre filter using a Skatron cell harvrester. The filters are washed with 3 ml ice-cold buffer. The amount of radioactivity on the filters is determined by conventional liquid scintillation counting. Specific binding is total binding minus non-specific binding.
The test value will be given as the IC50 (the concentration (μM) of the test substance which inhibits the specific binding of ^3H-AMPA by 50%)

Molecules are shown by their SMILES.

Regarding `Cc1cc2c(cc1S(=O)(=O)N1CCCCC1)S(=O)(=O)NC(C1CCCC1)N2` (stereo not drawn) [Compound 114, 3-Cyclopentyl-6-methyl-7-piperidinosulfonyl-1,2,3,4-tetrahydro-1,2,4-benzothia-diazine-1,1-dioxide], the “potentiation of AMPA induced [3H]GABA release” value in experiment [1] is reported as “potentiation”. Also, the IC50 in experiment [2] was determined as 33 µM.
Regarding `Cc1cc2c(cc1S(=O)(=O)N1CCOCC1)S(=O)(=O)NC(C1CCCCC1)N2` (stereo not drawn) [Compound 115, 3-Cyclohexyl-6-methyl-7-morpholinosulfonyl-1,2,3,4-tetrahydro-1,2,4-benzothiadiazine-1,1-dioxide], in experiment [1], the “potentiation of AMPA induced [3H]GABA release” value was “potentiation”. In addition, the IC50 in experiment [2] was found to be 7 µM.
As to `CN1CCN(S(=O)(=O)c2ccc3c(c2)S(=O)(=O)NC(C2CCCCC2)N3)CC1` (stereo not drawn) [Compound 61, 3-Cyclohexyl-7-(4′-methylpiperazino)sulfonyl-1,2,3,4-tetrahydro-1,2,4-benzothiadiazine-1,1-dioxide], the IC50 in experiment [2] stood at 8.5 µM.
The same measure, in the same setting: in the case of `O=S1(=O)NC(C2CCCCC2)Nc2ccc(S(=O)(=O)N3CCOCC3)cc21` (stereo not drawn) [Compound 63, 3-Cyclohexyl-7-morpholinosulfonyl-1,2,3,4-tetrahydro-1,2,4-benzothiadiazine-1,1-dioxide] it was 6 µM.
